Assay results published in PubChem BioAssay (NCI).
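Five compound concentrations were applied to cells in 96-well plates for 48 hours; endpoints were derived by simple linear interpolation of the resulting dose-response curve. TGI: total growth inhibition.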

Assays:
Experiment in all cases: inhibition of tumour cell growth, NCI panel, 48 h
[1] = test system: 786-0 renal
[2] = test system: A549 NSCLC
[3] = test system: ACHN renal
[4] = test system: BT-549 breast
[5] = test system: CAKI-1 renal
[6] = test system: CCRF-CEM leukemia
[7] = test system: COLO 205 colon
[8] = test system: DU-145 prostate
[9] = test system: EKVX NSCLC
[10] = test system: HCC-2998 colon
[11] = test system: HCT-116 colon
[12] = test system: HCT-15 colon
[13] = test system: HOP-62 NSCLC
[14] = test system: HOP-92 NSCLC
[15] = test system: HS 578T breast
[16] = test system: HT29 colon
[17] = test system: IGROV1 ovarian
[18] = test system: K-562 leukemia
[19] = test system: KM12 colon
[20] = test system: LOX IMVI melanoma
[21] = test system: M14 melanoma
[22] = test system: MALME-3M melanoma
[23] = test system: MCF7 breast
[24] = test system: MDA-MB-231 breast
[25] = test system: MDA-MB-435
[26] = test system: MDA-N
[27] = test system: MOLT-4 leukemia
[28] = test system: NCI-H23 lung
[29] = test system: NCI-H460 lung
[30] = test system: NCI-H522 lung
[31] = test system: NCI/ADR-RES ovarian
[32] = test system: OVCAR-3 ovarian
[33] = test system: OVCAR-4 ovarian
[34] = test system: OVCAR-5 ovarian
[35] = test system: OVCAR-8 ovarian
[36] = test system: PC-3 prostate
[37] = test system: RXF 393 renal
[38] = test system: SF-268 CNS
[39] = test system: SF-295 CNS
[40] = test system: SF-539 CNS
[41] = test system: SK-MEL-2 melanoma
[42] = test system: SK-MEL-28 melanoma
[43] = test system: SK-MEL-5 melanoma
[44] = test system: SK-OV-3 ovarian
[45] = test system: SN12C renal
[46] = test system: SNB-19 CNS
[47] = test system: SNB-75 CNS
[48] = test system: SR leukemia
[49] = test system: SW-620 colon
[50] = test system: T-47D breast
[51] = test system: TK-10 renal
[52] = test system: U251 CNS
[53] = test system: UACC-257 melanoma
[54] = test system: UACC-62 melanoma
[55] = test system: UO-31 renal
[56] = test system: A498 renal
[57] = test system: HL-60(TB) leukemia
[58] = test system: NCI-H226 lung
[59] = test system: RPMI-8226 leukemia

SMILES: Cn1/c(=N\N=C(\CNCCO)[C@@H](O)[C@@H]2OC(c3ccccc3)OC[C@H]2O)sc2ccccc21 (stereo partly drawn)
- TGI [1]: 34.3 µM
- TGI [2]: 31.1 µM
- TGI [3]: 44 µM
- TGI [4]: 37.2 µM
- TGI [5]: 38.6 µM
- TGI [6]: 47.4 µM
- TGI [7]: 30.9 µM
- TGI [8]: 35.1 µM
- TGI [9]: 33.2 µM
- TGI [10]: 32 µM
- TGI [11]: 29.5 µM
- TGI [12]: 54.6 µM
- TGI [13]: 34.7 µM
- TGI [14]: 32 µM
- TGI [15]: 31.1 µM
- TGI [16]: 38.6 µM
- TGI [17]: 35 µM
- TGI [18]: 33.3 µM
- TGI [19]: 33.5 µM
- TGI [20]: 31 µM
- TGI [21]: 26.5 µM
- TGI [22]: 32.3 µM
- TGI [23]: 34.2 µM
- TGI [24]: 29.8 µM
- TGI [25]: 35 µM
- TGI [26]: 32.5 µM
- TGI [27]: 33.6 µM
- TGI [28]: 37.5 µM
- TGI [29]: 49 µM
- TGI [30]: 32.7 µM
- TGI [31]: > 100 µM
- TGI [32]: 32.7 µM
- TGI [33]: 52.8 µM
- TGI [34]: 40.3 µM
- TGI [35]: 37 µM
- TGI [36]: 35.5 µM
- TGI [37]: 30.9 µM
- TGI [38]: 30.5 µM
- TGI [39]: 33.9 µM
- TGI [40]: 32.7 µM
- TGI [41]: 33.3 µM
- TGI [42]: 33.2 µM
- TGI [43]: 28.5 µM
- TGI [44]: 37.7 µM
- TGI [45]: 35.2 µM
- TGI [46]: 26.3 µM
- TGI [47]: 32.3 µM
- TGI [48]: 41 µM
- TGI [49]: 37.5 µM
- TGI [50]: 47 µM
- TGI [51]: 36.3 µM
- TGI [52]: 31.8 µM
- TGI [53]: 39 µM
- TGI [54]: 31.2 µM
- TGI [55]: 30.1 µM

SMILES: CC(=O)OCCOc1cc2c([nH]c3ccccc32)c(C)c2cccc1-2
- TGI [1]: 11 µM
- TGI [56]: 26.5 µM
- TGI [2]: > 32.2 µM
- TGI [3]: 3.35 µM
- TGI [4]: 8.22 µM
- TGI [5]: 6.14 µM
- TGI [6]: > 30 µM
- TGI [7]: 3.22 µM
- TGI [8]: 15.8 µM
- TGI [9]: 5.17 µM
- TGI [11]: 13.1 µM
- TGI [12]: 10.3 µM
- TGI [57]: 12.9 µM
- TGI [13]: 18.5 µM
- TGI [14]: 5.32 µM
- TGI [15]: > 100 µM
- TGI [16]: 21.6 µM
- TGI [17]: 4.84 µM
- TGI [18]: > 100 µM
- TGI [19]: 10.3 µM
- TGI [20]: 6.57 µM
- TGI [21]: 6.76 µM
- TGI [22]: 5.64 µM
- TGI [23]: 15.2 µM
- TGI [24]: 3.38 µM
- TGI [25]: 5.6 µM
- TGI [26]: 11 µM
- TGI [27]: > 100 µM
- TGI [58]: 25 µM
- TGI [28]: 5.17 µM
- TGI [29]: 7.6 µM
- TGI [30]: 4.29 µM
- TGI [31]: > 100 µM
- TGI [32]: 4.97 µM
- TGI [33]: 4 µM
- TGI [34]: 9.11 µM
- TGI [35]: 7.68 µM
- TGI [36]: 3.68 µM
- TGI [59]: > 26.4 µM
- TGI [37]: 4.4 µM
- TGI [38]: 7.28 µM
- TGI [39]: 15.2 µM
- TGI [40]: 3.62 µM
- TGI [41]: 4.96 µM
- TGI [42]: 7.57 µM
- TGI [43]: 9.79 µM
- TGI [44]: 18.5 µM
- TGI [45]: 10.9 µM
- TGI [46]: 8.97 µM
- TGI [47]: 3.51 µM
- TGI [48]: > 33.3 µM
- TGI [49]: > 24.9 µM
- TGI [50]: 5.57 µM
- TGI [51]: 5.4 µM
- TGI [52]: 3.16 µM
- TGI [53]: 3.74 µM
- TGI [54]: 6.05 µM
- TGI [55]: 3.34 µM
